The text below walks through data of PMC7738508, “A therapeutic combination of two small molecule toxin inhibitors provides broad preclinical efficacy against viper snakebite” (Nature Communications, 2020).

“And” between values parts separate entries of the source, which are not always exact repeats. Identical values can stand only once.

Data set [1] relates to Bitis arietans venom SVMP activity. Description: fluorogenic SVMP assay. The format is biochemical. As to conditions: independent repeats. The procedure: (§1) The SVMP assay measuring metalloproteinase activity and the plasma assay measuring coagulation in the presence or absence of venoms and inhibitors were performed as previously described. The SVMP assay kinetically measured cleavage of a quenched fluorogenic substrate (ES010, R&D Biosystems) by venom in the presence or absence of inhibitors.
(§2) Briefly, 10 µl of the substrate (supplied as a 6.2 mM stock) was used per 5 ml reaction buffer (150 mM NaCl, 50 mM Tris-Cl pH 7.5). Reactions consisted of 10 µl of venom ± inhibitors in PBS and 90 µl of substrate. Venoms were used at 1 µg/reaction and final inhibitor concentrations ranged from 150 µM to 150 nM. Samples were preincubated for 30 min at 37 °C and pipetted in triplicate into 384-well plates (Greiner). Thereafter, data was collected on an Omega FLUOstar (BMG Labtech) instrument at an excitation wavelength of 320 nm and emission wavelength of 405 nm at 25 °C for 1 h. The areas under the curve (AUCs) in the 0–40 min interval were calculated for each sample using MARS data analysis software v3.31 (BMG Labtech); this time point was chosen as the time where all fluorescence curves had reached a plateau (maximum fluorescence). For comparing venom-only samples, the means of at least three independent experimental runs for each condition, expressed as AUCs (n ≥ 3), were plotted at each inhibitor concentration with standard error of the mean (SEM). To determine inhibitor efficacy, the AUCs for each of the samples that consisted of venom + inhibitors were transformed and expressed as percentages of the venom-only sample (where the venom was 100%). The negative control (PBS-only) was also expressed relative to the venom, and the variation in background was presented as an interval delineated by the lowest and highest values in the PBS-only samples across concentrations and inhibitors for a specific venom.

The subject of data set [2] is Echis carinatus venom SVMP activity. In words: fluorogenic SVMP assay. The format is biochemical. As to conditions: independent repeats. The procedure: as §1, §2
Data set [3] concerns Bothrops asper venom SVMP activity. In words: fluorogenic SVMP assay. The format is biochemical. As to conditions: independent repeats. The procedure:
as §1, §2

Data set [4] has as its system Echis ocellatus venom SVMP activity. In words: fluorogenic SVMP assay. Conditions: independent repeats. Format: biochemical. The procedure: as §1, §2
For data set [5], the system named is E. ocellatus venom. Conditions: cited from earlier work.
The test system of data set [6] is procoagulant activity of Echis carinatus venom (citrated bovine plasma). In words: plasma clotting assay. Details: key: max of first derivative of A595 clot curve (max clotting velocity). Format: biochemical. As to conditions: Echis carinatus venom 100 ng, independent repeats. On the procedure:
(§3) We used a previously developed plasma clotting assay[35] to measure venom-induced coagulation. Briefly, 100 ng of each venom was incubated at 37 °C for 30 min in the presence or absence of inhibitors (150 µM to 150 nM final concentrations). The final reaction consisted of 10 µl venom ± inhibitors in PBS, 20 µl 20 mM CaCl2, and 20 µl citrated bovine plasma (VWR). The samples were pipetted in triplicate into 384-well plates, and absorbance monitored at 595 nm for 2 h at 25 °C on an Omega FLUOstar instrument. We calculated the maximum clotting velocity of each of the curves as per clot waveform analysis, by calculating the maximum of the first derivative. The means of at least three independent experimental runs for each condition were plotted at each inhibitor concentration with SEMs.

In data set [7] the test system is procoagulant activity of viper venoms (citrated bovine plasma). In words: plasma clotting assay, viper venoms overall. Format: biochemical. On the procedure:
as §3

Data set [8] relates to procoagulant activity of Bothrops asper venom (citrated bovine plasma). Description: plasma clotting assay. Format: biochemical. As to conditions: Bothrops asper venom 100 ng, independent repeats. On the procedure:
as §3

Data set [9] relates to procoagulant activity of Echis ocellatus venom (citrated bovine plasma). Description: plasma clotting assay. The format is biochemical. As to conditions: Echis ocellatus venom 100 ng, independent repeats. On the procedure:
as §3

For data set [10], the system named is SVMP bioactivity of the four active venoms (E. ocellatus, E. carinatus, B. asper, B. arietans). Description: in vitro kinetic fluorogenic SVMP assay, viper venoms overall. The format is biochemical. On the procedure: as §1, §2
Data set [11] deals with coagulopathic activity of Daboia russelii venom (citrated bovine plasma). Description: plasma clotting assay. The format is biochemical. Details: key to maximum clotting velocity: max of first derivative of A595 clot curve (max clotting velocity). Conditions: for maximum clotting velocity: Daboia russelii venom 100 ng, independent repeats. The procedure: as §3
The subject of data set [12] is SVSP activity of viper venoms. Description: chromogenic SVSP assay, viper venoms overall. Format: biochemical. The procedure: (§4) SVSP activity was measured using a chromogenic substrate (S-2288, Cambridge Bioscience). Reactions consisted of 15 µl of venom ± inhibitors in PBS, 15 µl of assay buffer (100 mM Tris-Cl pH 8.5, 100 mM NaCl) and 15 µl of 6 mM substrate. A positive venom-only control, a negative control containing 15 µl of PBS and a drug-only control (where applicable) were also included. The final substrate concentration was 2 mM and venoms were used at 1 µg/reaction. When testing inhibitors, these were preincubated with the venoms for 30 min at 37 °C with concentrations ranging from 150 µM to 150 nM (tenfold dilutions). The samples were pipetted in triplicate into 384-well plates (Greiner) and absorbance at 405 nm was monitored kinetically for ~30 min on an Omega FLUOstar instrument (BMG Labtech). Given the linearity of the resulting slopes, negative control readings (PBS) were subtracted from each reading and the rate of substrate consumption calculated by measuring the slope between 0 and 5 min. The mean rates (expressed as ΔAbs/time/µg venom) of at least three independent experimental runs for each condition (n ≥ 3) were plotted at each inhibitor concentration with SEMs using Prism v8 software (GraphPad).

In data set [13] the test system is Echis carinatus venom SVSP activity. Description: chromogenic SVSP assay. The format is biochemical. Conditions: independent repeats. The procedure:
as §4

Data set [14] concerns Bitis arietans venom SVSP activity. In words: chromogenic SVSP assay. Format: biochemical. As to conditions: independent repeats. On the procedure: as §4
In data set [15] the test system is Bothrops asper venom SVSP activity. In words: chromogenic SVSP assay. Conditions: independent repeats. The format is biochemical. On the procedure:
as §4

Data set [16] concerns Echis ocellatus venom SVSP activity. Description: chromogenic SVSP assay. As to conditions: nafamostat 150 nM, independent repeats. The format is biochemical. The procedure: as §4
For data set [17], the system named is E. ocellatus venom. Description: in vivo preincubation model of envenoming (i.v.). Details: species or system CD-1 mice. On the procedure: All animal experiments were conducted using protocols approved by the Animal Welfare and Ethical Review Boards of the Liverpool School of Tropical Medicine and the University of Liverpool, and performed in specific pathogen-free conditions under licensed approval (PPL #4003718 and #P5846F90) of the UK Home Office and in accordance with the Animal [Scientific Procedures] Act 1986 and institutional guidance on animal care. All experimental animals (18–20 g [4–5 weeks old], male, CD-1 mice, Charles River, UK) were housed in groups of five with environmental enrichment, water and food ad libitum and their health monitored daily during acclimatization. The experimental design was based upon 3R-refined WHO-recommended protocols[28],[41], with animals randomized and observers being blinded to the experimental condition. The median lethal doses (venom LD50) used for E. ocellatus (Nigeria), E. carinatus (India), B. asper (Costa Rica), D. russelii (Sri Lanka) and B. arietans (Nigeria) venoms were previously determined[25],[41],[44],[45].
All experimental doses were prepared to a volume of 200 µl in PBS and incubated at 37 °C for 30 min prior to their intravenous injection via the tail vein. Animals were monitored for 6 h, and euthanized via rising concentrations of CO2 upon observation of previously defined humane end points that are predicators of lethality (e.g., seizure, pulmonary distress, paralysis, hemorrhage)[28]. Deaths, time of death, and survivors were recorded; where death/time of death actually represents the implementation of euthanasia based on defined humane end points.
For all experimental animals described above, blood samples were collected via cardiac puncture immediately post-euthanasia. Plasma was separated by centrifugation at 400 × g for 10 min and stored at −80 °C. We assessed the levels of thrombin-antithrombin complexes (TAT) and soluble thrombomodulin using mouse ELISA Kits (ab137994 and ab209880, Abcam), following the manufacturer’s protocol. All available plasma samples (some were unobtainable via cardiac puncture due to extensive internal hemorrhage) were assessed if the time of death within the group varied, whereas three samples were randomly chosen if the time of death was the same (e.g., either very rapid death within 2 min, or survival until the end of the experiment [360 min or 24 h]). The resulting data was plotted as the median of duplicate measurements for each animal and is presented with standard deviations (SDs).

For data set [18] the following is noted: cited from earlier work.
A further data set deals with plasma coagulation. The format is biochemical, bovine. As to conditions: no venom; high doses (150 µM). The procedure: as §3

For the molecule `O=S(=O)(O)CC(S)CS` (stereo not drawn) [DMPS, 2,3-dimercapto-1-propanesulfonic acid], the “SVMP activity, percentage of the venom-only sample” value in [1] (inhibitor 15 µM) was 22.3961% and 20.1207% and 18.6801%; in data set [1] (inhibitor 150 µM), 20.1452% and 19.0476% and 17.6656%; in data set [2] (inhibitor 15 µM), 24.5956% and 26.5777% and 20.6819%; in data set [2] (inhibitor 150 µM), 13.0224% and 14.752% and 12.5581%; in data set [3] (inhibitor 15 µM) it was 34.6541% and 41.4523% and 39.2938%; in data set [3] (inhibitor 150 µM), 33.142% and 30.6392% and 28.5849%. Moreover, the “SVMP activity, percentage of the venom-only sample” value in data set [4] (inhibitor 15 µM) was 18.6328% and 21.5132% and 17.5016%; in [4] (inhibitor 150 µM) it was 15.3569% and 14.8369% and 16.006%. Besides, in the data set with E. ocellatus venom [5] (90 µg E. ocellatus venom i.p., 120 µg DMPS i.p. 15 mins later, D + AV also 168 µl EchiTAbG i.v. 1 hr after venom, 1 = death (=), 0 = survived (>=), ref Albulescu et al.1), the “survival time of individual animals (Kaplan-Meier source data)” value is 12.6 h and 21.51 h and 15.51 h and ≥ 24 h. The “duration for which lethality was prevented” value with E. ocellatus venom [5] (same preclinical model, E. ocellatus) is recorded as ~ 8 h. Further, the maximum clotting velocity in [6] (inhibitor 15 µM) is 0.04133 and 0.038 and 0.05133; in [6] (inhibitor 150 µM) it was 0.033 and 0.04 and 0.03533; in [8] (inhibitor 15 µM), 0.04261 and 0.04406 and 0.05475; in data set [8] (inhibitor 150 µM) it was 0.03159 and 0.02725 and 0.0282; in [9] (inhibitor 15 µM) it was 0.09233 and 0.098 and 0.085; in data set [9] (inhibitor 150 µM), 0.03733 and 0.04867 and 0.039. Further, the maximum clotting velocity was 0.1186 and 0.1081 and 0.1102 in data set [11] (inhibitor 15 µM); 0.07853 and 0.08841 and 0.07869 in data set [11] (inhibitor 150 µM). For the same molecule, the “neutralizing the procoagulant activities” value in [7] (E. ocellatus, E. carinatus and B. asper venoms, highest dose 150 µM) was “effective”. Also, the IC50 in data set [7] (range across all venoms, lower end of dimercaprol and marimastat ranges given as < 0.15, read-out: IC50, inhibition of procoagulant venom activity) lay within 0.8 to 25.9 µM; in [10] (range across the active venoms, read-out: IC50s, inhibition of venom SVMP activity) it was 0.29 to 4.19 µM. Also, the “lowest concentration generally effective / required to fully inhibit SVMP activities” value in [10] (across the active venoms) is on record as 15 µM. The “neutralizing the procoagulant activity” value in data set [11] (D. russelii venom) is “ineffective”.
On to `N=C(N)c1ccc2cc(OC(=O)c3ccc(N=C(N)N)cc3)ccc2c1` [nafamostat], for which the “inhibition of SVSP activity” value in data set [12] (highest doses 150 and 15 µM, irrespective of venom) was “completely inhibiting SVSP activity”. Also, the IC50 in data set [12] (range across venoms, read-out: IC50s, inhibition of venom SVSP activity) fell in the range of 0.12 to 1.07 µM. Further, the “SVSP activity, rate of substrate consumption” value in data set [13] (nafamostat 150 nM) was 0.08494 ΔAbs/time/µg venom and 0.09756 ΔAbs/time/µg venom and 0.1079 ΔAbs/time/µg venom; in data set [13] (nafamostat 15 uM) it was 0.001726 ΔAbs/time/µg venom and 0.002857 ΔAbs/time/µg venom and 0.003095 ΔAbs/time/µg venom; in data set [14] (nafamostat 150 nM), 0.0636 ΔAbs/time/µg venom and 0.06929 ΔAbs/time/µg venom and 0.08741 ΔAbs/time/µg venom; in [14] (nafamostat 15 uM) it was 0.0014 ΔAbs/time/µg venom and 0.001071 ΔAbs/time/µg venom and 0.001786 ΔAbs/time/µg venom; in data set [15] (nafamostat 150 nM), 0.03413 ΔAbs/time/µg venom and 0.03851 ΔAbs/time/µg venom and 0.04036 ΔAbs/time/µg venom; in [15] (nafamostat 15 uM), 0.003733 ΔAbs/time/µg venom and 0.002738 ΔAbs/time/µg venom and 0.004018 ΔAbs/time/µg venom. Besides, the “SVSP activity, rate of substrate consumption” value in data set [16] was 0.01667 ΔAbs/time/µg venom and 0.02387 ΔAbs/time/µg venom and 0.02696 ΔAbs/time/µg venom. Further, the “protection against venom-induced lethality” value in the data set with E. ocellatus venom [17] (45 µg E. ocellatus venom preincubated with 60 µg of each drug, i.v., 6 h) is “no evident efficacy”. Besides, the “thrombin-antithrombin (TAT) levels, range in group” value in the data set on E. ocellatus venom [17] (plasma after euthanasia, E. ocellatus venom + 60 µg of each drug, venom-only mean 1127.3, normal mice 10.2–15.9) lay in the range of 543.9 to 859.1 ng/mL. The half-life in [18] was ~ 8 min. Moreover, the “effect on normal plasma clotting” value in the data set on plasma coagulation is listed as “dramatically inhibits plasma coagulation”.
